Measurements: patent publication US20230265151A1, “GIP/GLP1 CO-AGONIST COMPOUNDS” (priority 2020, published 2023)
Read-outs that look alike come from different tables or passages of the source. *1 amine or outer side, *2 acyl side, *3 side chain or, on linkers, in order; H or OH if unused. Where a SMILES comes first, the peptide text is derived from it. Side-chain parts run from the residue outwards. [ ]: non-standard residue; d: D form. The star is where a group is joined. αMePhe(2-F) = C[C@](N)(Cc1ccccc1F)C(=O)O; γGlu = O=C(O)[C@H](CCC(=O)[*:2])N[*:1]; C14 diacid = O=C(O)CCCCCCCCCCCCC(=O)*; αMeF = C[C@](N)(Cc1ccccc1)C(=O)O; 4Pal = N[C@@H](Cc1ccncc1)C(=O)O; αMeL = CC(C)C[C@](C)(N)C(=O)O; Orn = NCCC[C@H](N)C(=O)O; AEEA = NCCOCCOCC(=O)O; Aib = CC(C)(N)C(=O)O

Tests used:
Type in all cases: cell-based
[1] = biological target: T1, hGIPR (Homo sapiens, UniProt P48546); assay: Functional cAMP formation (HTRF) in HEK-293 clonal cells expressing hGIPR, 0.1% bovine casein, without or with 1.0% human serum albumin; settings: for Emax: 37° C., 0.1% bovine casein, arithmetic mean; for EC50: cAMP, incubated at 37° C., 0.1% bovine casein (no human serum albumin), geometric mean
T1 construct: expressed in transfected cells
T1 sequence (P48546 22-466): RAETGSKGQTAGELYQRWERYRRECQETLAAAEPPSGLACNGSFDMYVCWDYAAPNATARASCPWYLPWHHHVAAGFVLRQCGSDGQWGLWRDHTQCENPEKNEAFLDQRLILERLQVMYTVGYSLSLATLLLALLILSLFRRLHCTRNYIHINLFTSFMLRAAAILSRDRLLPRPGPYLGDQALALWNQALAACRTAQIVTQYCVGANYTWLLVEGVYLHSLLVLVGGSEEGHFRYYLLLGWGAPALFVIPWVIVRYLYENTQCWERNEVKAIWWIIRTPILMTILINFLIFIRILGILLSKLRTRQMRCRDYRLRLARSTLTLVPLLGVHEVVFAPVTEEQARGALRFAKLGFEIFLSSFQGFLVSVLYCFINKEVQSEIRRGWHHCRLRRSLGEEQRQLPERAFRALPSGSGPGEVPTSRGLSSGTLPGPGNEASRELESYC
In short: (§1)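 Cells were stimulated with peptide for 30 min at 37° C, then intracellular cAMP was measured by competitive HTRF (665/620 nm ratio) and converted to nM using a cAMP standard curve. Relative EC50 and Emax came from four-parameter logistic fits of percent maximal response against peptide concentration.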

[2] = biological target: T2, hGCGR (Homo sapiens, UniProt P47871); assay: Functional cAMP formation (HTRF) in HEK-293 clonal cells expressing hGCGR, 0.1% bovine casein, without or with 1.0% human serum albumin; settings: cAMP, incubated at 37° C., 0.1% bovine casein (no human serum albumin), geometric mean
T2 construct: expressed in transfected cells
In short: as §1

[3] = biological target: hGLP-1R (Homo sapiens, UniProt P43220); assay: Functional cAMP formation (HTRF) in HEK-293 clonal cells expressing hGLP-1R, 0.1% bovine casein, without or with 1.0% human serum albumin; design: expressed in transfected cells; settings: for Emax: 37° C., 0.1% bovine casein, arithmetic mean; for EC50: cAMP, incubated at 37° C., 0.1% bovine casein (no human serum albumin), geometric mean
In short: as §1

[4] = HEK293, read-out: hGIPR Emax, % ± SEM, percent of maximal response to GIP(1-42)NH2
[5] = HEK293, read-out: hGLP-1R Emax, % ± SEM, percent of maximal response to GLP-1(7-36)NH2
[6] = HEK293, percent of maximal response to GIP(1-42)NH2, read-out: hGIPR Emax, % ± SEM
[7] = read-out: hGIPR EC50, nM (SEM, n)
[8] = read-out: hGCGR EC50, nM (SEM, n)
[9] = HEK293, percent of maximal response to GLP-1(7-36)NH2, read-out: hGLP-1R Emax, % ± SEM

Chain of hGLP-1R (P43220 24-463): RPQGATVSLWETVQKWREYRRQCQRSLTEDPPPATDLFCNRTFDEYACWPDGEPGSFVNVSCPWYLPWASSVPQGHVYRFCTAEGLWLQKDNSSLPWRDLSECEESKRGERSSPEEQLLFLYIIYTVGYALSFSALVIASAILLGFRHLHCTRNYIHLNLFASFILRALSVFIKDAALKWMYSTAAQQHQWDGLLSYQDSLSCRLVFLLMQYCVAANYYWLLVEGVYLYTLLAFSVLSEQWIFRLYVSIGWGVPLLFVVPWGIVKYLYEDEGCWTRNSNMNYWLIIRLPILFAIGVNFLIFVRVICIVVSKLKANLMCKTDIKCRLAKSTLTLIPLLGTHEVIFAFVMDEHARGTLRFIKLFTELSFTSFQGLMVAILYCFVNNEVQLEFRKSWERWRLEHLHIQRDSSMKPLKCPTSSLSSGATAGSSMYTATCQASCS
T2 sequence (P47871 26-477): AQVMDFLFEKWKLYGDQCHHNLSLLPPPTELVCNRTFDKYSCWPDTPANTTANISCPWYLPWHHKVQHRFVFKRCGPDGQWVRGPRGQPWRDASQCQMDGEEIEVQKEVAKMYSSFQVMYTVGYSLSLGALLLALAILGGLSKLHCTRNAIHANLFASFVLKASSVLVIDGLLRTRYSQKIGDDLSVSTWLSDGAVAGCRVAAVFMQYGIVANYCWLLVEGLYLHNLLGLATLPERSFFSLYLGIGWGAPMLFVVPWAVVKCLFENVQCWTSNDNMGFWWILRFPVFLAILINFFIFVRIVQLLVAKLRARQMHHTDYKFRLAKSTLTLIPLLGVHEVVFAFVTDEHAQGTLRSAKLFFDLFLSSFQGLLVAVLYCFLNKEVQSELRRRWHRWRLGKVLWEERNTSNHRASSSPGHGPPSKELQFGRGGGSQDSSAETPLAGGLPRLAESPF

Row | SMILES | Emax [1, 4] [%] | EC50 ([1]; hGIPR EC50, nM (SEM, n)) [nM] | EC50 ([2]; hGCGR EC50, nM (SEM, n)) [nM] | Emax [3, 5] [%] | Emax [1, 6] [%] | EC50 [1, 7] [nM] | EC50 [2, 8] [nM] | Emax [3, 9] [%] | EC50 ([3]; hGLP-1R EC50, nM (SEM, n)) [nM] | EC50 ([3]; read-out: hGLP-1R EC50, nM (SEM, n)) [nM]
1 | CC[C@H](C)[C@H](NC(=O)[C@H](CC(C)C)NC(=O)[C@](C)(Cc1ccc(O)cc1)NC(=O)[C@H](CCC(=O)O)NC(=O)[C@@H](NC(=O)[C@H](Cc1ccccc1)NC(=O)[C@H](CCC(=O)O)NC(=O)C(C)(C)NC(=O)[C@H](CCC(N)=O)NC(=O)[C@H](C)NC(=O)[C@H](CCCCNC(=O)COCCOCCNC(=O)COCCOCCNC(=O)CC[C@H](NC(=O)CCCCCCCCCCCCC(=O)O)C(=O)O)NC(=O)[C@H](CCCN)NC(=O)[C@H](CC(=O)O)NC(=O)[C@H](CC(C)C)NC(=O)[C@](C)(CC(C)C)NC(=O)[C@@H](NC(=O)[C@H](CO)NC(=O)[C@H](Cc1ccncc1)NC(=O)[C@H](CC(=O)O)NC(=O)[C@H](CO)NC(=O)[C@@H](NC(=O)[C@](C)(Cc1ccccc1F)NC(=O)[C@@H](NC(=O)CNC(=O)[C@H](CCC(=O)O)NC(=O)C(C)(C)NC(=O)[C@@H](N)Cc1ccc(O)cc1)[C@@H](C)O)[C@@H](C)O)[C@@H](C)CC)[C@@H](C)CC)C(=O)N[C@@H](CCC(=O)O)C(=O)NCC(=O)NCC(=O)N[C@@H](CCCCNC(=O)COCCOCCNC(=O)COCCOCCNC(=O)CC[C@H](NC(=O)CCCCCCCCCCCCC(=O)O)C(=O)O)C(=O)N[C@@H](CO)C(=O)N[C@@H](CO)C(=O)NCC(=O)N[C@@H](C)C(=O)N1CCC[C@H]1C(=O)N1CCC[C@H]1C(=O)N1CCC[C@H]1C(=O)N[C@@H](CO)C(N)=O [Example 158] | 93.4 | 0.0204 | > 9950 | 87.2 | – | – | – | – | – | –
2 | CC[C@H](C)[C@H](NC(=O)[C@H](CC(C)C)NC(=O)[C@](C)(Cc1ccccc1)NC(=O)[C@H](CCC(=O)O)NC(=O)[C@@H](NC(=O)[C@H](Cc1ccccc1)NC(=O)[C@H](CCC(=O)O)NC(=O)C(C)(C)NC(=O)[C@H](CCC(N)=O)NC(=O)[C@H](C)NC(=O)[C@H](CCCCNC(=O)COCCOCCNC(=O)COCCOCCNC(=O)CC[C@H](NC(=O)CCCCCCCCCCCCC(=O)O)C(=O)O)NC(=O)[C@H](CCCN)NC(=O)[C@H](CC(=O)O)NC(=O)[C@H](CC(C)C)NC(=O)[C@](C)(CC(C)C)NC(=O)[C@@H](NC(=O)[C@H](CO)NC(=O)[C@H](Cc1ccncc1)NC(=O)[C@H](CC(=O)O)NC(=O)[C@H](CO)NC(=O)[C@@H](NC(=O)[C@](C)(Cc1ccccc1F)NC(=O)[C@@H](NC(=O)CNC(=O)[C@H](CCC(=O)O)NC(=O)C(C)(C)NC(=O)[C@@H](N)Cc1ccc(O)cc1)[C@@H](C)O)[C@@H](C)O)[C@@H](C)CC)[C@@H](C)CC)C(=O)N[C@@H](CCC(=O)O)C(=O)NCC(=O)NCC(=O)N[C@@H](CCCCNC(=O)COCCOCCNC(=O)COCCOCCNC(=O)CC[C@H](NC(=O)CCCCCCCCCCCCC(=O)O)C(=O)O)C(=O)N[C@@H](CO)C(=O)N[C@@H](CO)C(=O)NCC(=O)N[C@@H](C)C(=O)N1CCC[C@H]1C(=O)N1CCC[C@H]1C(=O)N1CCC[C@H]1C(=O)N[C@@H](CO)C(N)=O [Example 159] (H-Y[Aib]EGT[αMePhe(2-F)]TSD[4Pal]SI[αMeL]LD[Orn]K([AEEA-AEEA-γGlu-C14 diacid])AQ[Aib]EFIE[αMeF]LIEGGK([AEEA-AEEA-γGlu-C14 diacid])SSGAPPPS-NH2) | – | – | – | – | 95.3 | 0.0198 | > 9950 | 89.4 | – | –
3 | CC[C@H](C)[C@H](NC(=O)[C@H](CC(C)C)NC(=O)[C@](C)(Cc1ccc(O)cc1)NC(=O)[C@H](CCCCNC(=O)COCCOCCNC(=O)COCCOCCNC(=O)[C@@H](N)CCCCNC(=O)CCCCCCCCCCCCC(=O)O)NC(=O)[C@@H](NC(=O)[C@H](Cc1ccccc1)NC(=O)[C@H](CCC(=O)O)NC(=O)C(C)(C)NC(=O)[C@H](CCC(N)=O)NC(=O)[C@H](C)NC(=O)[C@H](CCCCNC(=O)COCCOCCNC(=O)COCCOCCNC(=O)[C@@H](N)CCCCNC(=O)CCCCCCCCCCCCC(=O)O)NC(=O)[C@H](CCCN)NC(=O)[C@H](CC(=O)O)NC(=O)[C@H](CC(C)C)NC(=O)[C@](C)(CC(C)C)NC(=O)[C@@H](NC(=O)[C@H](CO)NC(=O)[C@H](Cc1ccncc1)NC(=O)[C@H](CC(=O)O)NC(=O)[C@H](CO)NC(=O)[C@@H](NC(=O)[C@](C)(Cc1ccccc1F)NC(=O)[C@@H](NC(=O)CNC(=O)[C@H](CCC(=O)O)NC(=O)C(C)(C)NC(=O)[C@@H](N)Cc1ccc(O)cc1)[C@@H](C)O)[C@@H](C)O)[C@@H](C)CC)[C@@H](C)CC)C(=O)N[C@@H](CCC(=O)O)C(=O)NCC(=O)NCC(=O)N1CCC[C@H]1C(=O)N[C@@H](CO)C(=O)N[C@@H](CO)C(=O)NCC(=O)N[C@@H](C)C(=O)N1CCC[C@H]1C(=O)N1CCC[C@H]1C(=O)N1CCC[C@H]1C(=O)N[C@@H](CO)C(N)=O [Example 160] | – | 0.0197 | > 9950 | 93.6 | – | – | – | – | – | –
4 | CC[C@H](C)[C@H](NC(=O)[C@H](CC(C)C)NC(=O)C(C)(Cc1ccc(O)cc1)NC(=O)[C@H](CCCCNC(=O)[C@@H](N)CCCCNC(=O)CC[C@H](NC(=O)CCCCCCCCCCCCC(=O)O)C(=O)O)NC(=O)[C@@H](NC(=O)[C@H](Cc1ccccc1)NC(=O)[C@H](CCC(=O)O)NC(=O)C(C)(C)NC(=O)[C@H](CCC(N)=O)NC(=O)[C@H](C)NC(=O)[C@H](CCCCNC(=O)[C@@H](N)CCCCNC(=O)CC[C@H](NC(=O)CCCCCCCCCCCCC(=O)O)C(=O)O)NC(=O)[C@H](CCCN)NC(=O)[C@H](CC(=O)O)NC(=O)[C@H](CC(C)C)NC(=O)C(C)(CC(C)C)NC(=O)[C@@H](NC(=O)[C@H](CO)NC(=O)[C@H](Cc1ccncc1)NC(=O)[C@H](CC(=O)O)NC(=O)[C@H](CO)NC(=O)[C@@H](NC(=O)C(C)(Cc1ccccc1F)NC(=O)[C@@H](NC(=O)CNC(=O)[C@H](CCC(=O)O)NC(=O)C(C)(C)NC(=O)[C@@H](N)Cc1ccc(O)cc1)[C@@H](C)O)[C@@H](C)O)[C@@H](C)CC)[C@@H](C)CC)C(=O)N[C@@H](CCC(=O)O)C(=O)NCC(=O)NCC(=O)N1CCC[C@H]1C(=O)N[C@@H](CO)C(=O)N[C@@H](CO)C(=O)NCC(=O)N[C@@H](C)C(=O)N1CCC[C@H]1C(=O)N1CCC[C@H]1C(=O)N1CCC[C@H]1C(=O)N[C@@H](CO)C(N)=O (some centres unmarked) [Example 161] | 94.6 ± 1.21 | 0.0207 | > 9950 | – | – | – | – | – | 0.203 | –
5 | CC[C@H](C)[C@H](NC(=O)[C@H](CC(C)C)NC(=O)[C@](C)(Cc1ccc(O)cc1)NC(=O)[C@@H](CCC(=O)O)NC(=O)[C@@H](NC(=O)[C@H](Cc1ccccc1)NC(=O)[C@H](CCC(=O)O)NC(=O)C(C)(C)NC(=O)[C@H](CCC(N)=O)NC(=O)[C@H](C)NC(=O)[C@H](CCCCNC(=O)COCCOCCNC(=O)COCCOCCNC(=O)[C@@H](N)CCCCNC(=O)CCCCCCCCCCCCC(=O)O)NC(=O)[C@H](CCCN)NC(=O)[C@H](CC(=O)O)NC(=O)[C@H](CC(C)C)NC(=O)[C@](C)(CC(C)C)NC(=O)[C@@H](NC(=O)C(C)(C)NC(=O)[C@@H](NC(=O)[C@H](CC(=O)O)NC(=O)[C@H](CO)NC(=O)[C@@H](NC(=O)[C@](C)(Cc1ccccc1F)NC(=O)[C@@H](NC(=O)CNC(=O)[C@H](CCC(=O)O)NC(=O)C(C)(C)NC(=O)[C@@H](N)Cc1ccc(O)cc1)[C@@H](C)O)[C@@H](C)O)C(C)C)[C@@H](C)CC)[C@@H](C)CC)C(=O)N[C@@H](CCC(=O)O)C(=O)NCC(=O)NCC(=O)N[C@@H](CCCCNC(=O)COCCOCCNC(=O)COCCOCCNC(=O)[C@@H](N)CCCCNC(=O)CCCCCCCCCCCCC(=O)O)C(=O)N[C@@H](CO)C(=O)N[C@@H](CO)C(=O)NCC(=O)N[C@@H](C)C(=O)N1CCC[C@H]1C(=O)N1CCC[C@H]1C(=O)N1CCC[C@H]1C(=O)N[C@@H](CO)C(N)=O [Example 163] | – | – | – | – | 98.2 | 0.0427 | > 9950 | 86.3 | – | 0.199
